Reference: patent publication US7928096B2, “Polydiazeniumdiolated cyclic polyamines with polyphasic nitric oxide release and related compounds, compositions comprising same and methods of using same” (The United States of America, as represented by the …, priority 2002, dated 2011)
Where two headings read alike, the source gives them in different places.

Columns and labels:
[1] = comparative example from Hrabie et al. 1999; cited from earlier work
[2] = Total moles of NO released by chemiluminescence; assay type: physicochemical; settings: for Ideal moles of NO released: theoretical (ideal) amount; for Moles of NO released: chemiluminescence
Procedure: (§1) The total moles of NO released were determined by chemiluminescence as previously described in Hrabie et al. (New Nitric Oxide Releasing Zwitterions Derived from Polyamines. J. Org. Chem., 1993, 58, 1472-1476). The NO release rates for the compounds prepared in Example 1 and Example 2 were determined by UV spectrophotometry by adding a stock solution of the compound in 0.01 M NaOH to pH 7.4 phosphate buffer (0.1 M) contained in a standard UV cell to generate final solutions at concentrations in the range of 50 to 100 μM. The rate of NO release was determined by the decrease in 250-252 nm absorbance over time at 37° C. as previously described by Keefer et al. (“NONOates” (1-Substituted Diazen-1-ium-1,2-diolates) as Nitric Oxide Donors: Convenient Nitric Oxide Dosage Forms. Methods in Enzymology, 1996, 268, 281-293). The results of the NO release of piperazine bisdiazeniumdiolate as discussed in Hrabie et al. (Organic Preparations and Procedures International, 1999, 31(2), 189-192) are included as a comparative example.

[3] = NO release rate by UV spectrophotometry (decrease in 250-252 nm absorbance); assay type: physicochemical; settings: phosphate buffer, pH 7.4, pH 7.4 phosphate buffer (0.1 M), 37° C., 50 to 100 μM
Text: The invention provides a cyclic polyamine compound comprising at least three amino groups, wherein at least two of the amino groups are covalently bound to a nitrogen oxide-releasing group of the formula N2O2M, in which M is a pharmaceutically acceptable cation. The invention also provides a compound that has a polyphasic release of nitric oxide, wherein any subsequent release of nitric oxide has a rate that is at least about 3 times smaller than an initial rate of nitric oxide release. The rate of NO release can be determined by any suitable method. For example, the rate of NO release can be measured by the decrease in 250-252 nm absorbance over time at 37° C. as previously described by Keefer et al., “NONOates” (1-Substituted Diazen-1-ium-1,2-diolates) as Nitric Oxide Donors: Convenient Nitric Oxide Dosage Forms. Methods in Enzymology, 1996, 268, 281-293.
as §1

[4] = NO release monitored by chemiluminescence of effluent gas stream treated with ozone; settings: pH 7.4 phosphate buffer at 37° C.
Procedure: The diazeniumdiolated compound described in Example 4 was dissolved in pH 7.4 phosphate buffer at 37° C., and the release of NO was monitored by detection of the chemiluminescence generated by treatment of the effluent gas steam with ozone.
The diazeniumdiolated compound described in Example 5 was dissolved in pH 7.4 phosphate buffer at 37° C., and the release of NO was monitored by detection of the chemiluminescence generated by treatment of the effluent gas steam with ozone.
The diazeniumdiolated compound described in Example 6 was dissolved in pH 7.4 phosphate buffer at 37° C., and the release of NO was monitored by detection of the chemiluminescence generated by treatment of the effluent gas steam with ozone.
The diazeniumdiolated compound described in Example 7 was dissolved in pH 7.4 phosphate buffer at 37° C., and the release of NO was monitored by detection of the chemiluminescence generated by treatment of the effluent gas steam with ozone.
The diazeniumdiolated compound described in Example 9 was dissolved in pH 7.4 phosphate buffer at 37° C., and the release of NO was monitored by detection of the chemiluminescence generated by treatment of the effluent gas steam with ozone.

[5] = read-out: t1/2 of initial phase
[6] = read-out: t1/2 of second phase (converted)

Compound	Moles of NO released [1]	Ideal moles of NO released [2]	half-life [3, 5]	half-life [3, 6]	melting point	Moles of NO released [2]	biphasic release of NO, first rate of release [4]	biphasic release of NO, second rate of release [4]
piperazine bisdiazeniumdiolate [reference compound]	4.3 mol	4 mol	–	–	–	–	–	–
[Na+].[Na+].[O-]/N=[N+](\[O-])N1CCNCCNCCN(/[N+]([O-])=N/[O-])CC1 [Example 2, 1,4,7,10-tetraazacyclododecane-1,4-bisdiazeniumdiolate]	–	4 mol	0.0283 h	8.8 h	183 to 185 °C (dec.)	3.3 mol	–	–
O=NN([O-])N1CCN2CCN(CCN(N([O-])N=O)CC1)C(=O)C2=O.[Na+].[Na+] [Example 6, 1,4-bis(diazeniumdiolated)-1,4,7,10-tetraazabicyclo[8.2.2]tetradecane-11,12-dione, disodium salt]	–	–	–	–	–	–	1.0 min	41.5 min
O=C1C(=O)N2CCCN([N+]([O-])=N[O-])CCN([N+]([O-])=N[O-])CCCN1CC2.[Na+].[Na+] [Example 9, 1,4-bis(diazeniumdiolated)-1,5,8,12-tetraazabicyclo[10.2.2.]hexadecane-13,14-dione, disodium salt]	–	–	–	–	–	–	1.1 min	161 min
CCOC(=O)N1CCN(/[N+]([O-])=N/[O-])CCN(C(=O)OCC)CCN(/[N+]([O-])=N/[O-])CC1.[Na+].[Na+] [Example 7, 1,7-diazeniumdiolated-4,10-bis(ethoxycarbonyl)-1,4,7,10-tetraazacyclododecane, disodium salt]	–	–	–	–	–	–	0.36 min	60.9 min
[Na+].[Na+].[O-]/N=[N+](\[O-])N1CCCN(/[N+]([O-])=N/[O-])CCNCCCNCC1 [Example 1, 1,4,8,11-tetraazacyclotetradecane-1,11-bisdiazeniumdiolate]	–	4 mol	0.0283 h	8.9 h	181 to 182 °C	3.3 mol	–	–
